Laboratory results: publication PMC11784564 (RSC Chemical Biology, 2025)

Columns and labels:
PfSir2A [1] = target: T1, PfSir2A (Plasmodium falciparum, UniProt Q8IE47); assay: HPLC demyristoylation assay with H3K9Myr peptide; type: biochemical
T1 sequence (Q8IE47 1-273): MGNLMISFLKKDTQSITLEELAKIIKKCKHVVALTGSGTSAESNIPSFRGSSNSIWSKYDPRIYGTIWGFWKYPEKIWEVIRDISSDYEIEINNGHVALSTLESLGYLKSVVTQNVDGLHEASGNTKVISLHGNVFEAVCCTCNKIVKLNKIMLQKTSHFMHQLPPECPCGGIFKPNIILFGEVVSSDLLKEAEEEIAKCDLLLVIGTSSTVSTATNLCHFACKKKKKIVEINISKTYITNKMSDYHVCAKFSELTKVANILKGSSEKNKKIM

PfSir2A [2] = target: T1, PfSir2A; assay: HPLC deacetylation assay with H3K9Ac peptide; type: biochemical
[3] = target: T2, PfSir2A (Plasmodium falciparum) (UniProt Q8IE47); assay: EMSA; settings: room temperature
T2 sequence: T1 sequence (Q8IE47 1-273)

PfSir2A [4] = target: T3, PfSir2A (Plasmodium falciparum, UniProt Q8IE47 1-273); assay: MST
T3 sequence: T1 sequence (Q8IE47 1-273)

## CCCCCCCCCCCCCC(=O)O [myristic acid]
PfSir2A [1]
  IC50: 107 ± 15 µM

## c1cncc(-c2c[nH]nn2)c1 [3-TYP]
PfSir2A [2]
  IC50: ~59.6 µM

## H3K9Ac dNuc (601-positioned nucleosome)
[3]; H3K9Ac on histone H3; […]) / MST buffer
  Kd: 1.4 µM

## 601 nucleosome assembly sequence DNA, 147 bp
[3]; […]) / MST buffer
  Kd: 4 µM

## NC(=O)c1ccc[n+]([C@@H]2O[C@H](CO)[C@@H](O)[C@H]2O)c1 [nicotinamide riboside]
PfSir2A [2]
  IC50: 155 ± 14.9 µM

## GAAGTCGGGGATGGCAGAGGCAGTGCT (ssDNA) [ssDNA (MST)]
PfSir2A [4]
  Kd: 0.138 µM
